How the values were obtained:
electroshocked mice = test: Anti-seizure effect on electroshocked mice; assay type: in vivo, Kunming mice; conditions: 70 mice per group, dosed twice daily
Excerpt: Electrodes are placed at the ears of the mice to provide instant stimulation through a strong electric currency. An appropriate electric currency induces an excessive surge of electrical activity in the brain resulting in seizures to occur.
Kunming grade healthy mice, which were 50-70 days old, weighing 18-22 g, were provided by the Institute of Zoology, Chinese Academy of Sciences, Beijing, China. The electroshock device (model GJ-2, manufactured by Medical Instrument Factory, Zhejiang Medical University) was adjusted to an output frequency of 60 Hz and voltage of 125 V. An equal number of male and female mice were selected. The ears of the mice were covered with saturated saline soaked-cotton. The electrodes were then clipped onto the ears of the mice. The mice were electroshocked three times for 0.3 seconds at an interval of 10 seconds. Mice with seizure activity were then divided into four groups, each group containing 70 mice: the test group (AY), the control yeast group (NY), the positive control group (CK2) and negative control group (CK1). Each mouse in the test, control yeast and negative control groups was administered twice daily 0.4 ml of the activated yeast composition, the control yeast composition, and saline, respectively, for 1 week. Each mouse in the positive control group was administered twice daily 15 mg/kg of phenobarbital for 1 week.
On each day, the mice were electroshocked once for 0.3 seconds. The number of mice with seizure activity were monitored as illustrated in Table 2.

[1] = test system: rats induced with cardiazol; test: Anti-seizure effect of rats induced with cardiazol; assay type: in vivo, Wistar rats; conditions: day 7, cardiazol 70 mg/kg subcutaneous 30 minutes after last dose; dosed twice daily for 1 week; 20 rats per group
Excerpt: Cardiazol induces seizure activity through intensifying excitatory synaptic activity of the brain. At the appropriate dose, cardiazol induces epileptic bursts that occur spontaneously.
An equal number of female and male Wistar rats that were […], weighing 200-220 g were provided by the Chinese Academy of Military Medical Sciences, Beijing, China. The rats were divided into four groups, each containing 20 rats: the test group (AY), the control yeast group (NY), the positive control group (CK2) and negative control group (CK1). Each rat in the test, control yeast and negative control groups was administered twice daily 0.6 ml of the activated yeast composition, the control yeast composition, and saline, respectively, for 1 week. Each mouse in the positive group was administered twice daily 0.04 g/kg (body weight) of phenobarbital (dissolved in 0.6 ml saline) for 1 week.
On day 7, 30 minutes after administering the last dosage of the above compositions, each group was administered by subcutaneous injection 70 mg/kg (body weight) of cardiazol (prepared as a 5% cardiazol solution in saline). The number of seizures occurred, incubation time (time between completion of injection and first seizure) and life span after injection was recorded immediately thereafter as shown in Table 3.

Q: For `CCC1(c2ccccc2)C(=O)NC(=O)NC1=O` [CK2, phenobarbital], which “% mice anti-seizure” value (electroshocked mice; Day 1) is on record?
A: The value was 15.7%.

Q: And the “No. mice with seizure activity” value (electroshocked mice; Day 1, intragastric, electroshocked once for 0.3 seconds each day)?
A: Its value is 59.

Q: And the “% mice anti-seizure” value (electroshocked mice; Day 2)?
A: Its value is 31.4%.

Q: What about the “No. mice with seizure activity” value (electroshocked mice; Day 2) of the same compound?
A: The value was 48.

Q: What about the “% mice anti-seizure” value (electroshocked mice; Day 3) of the same compound?
A: The value was 20%.

Q: What about the “No. mice with seizure activity” value (electroshocked mice; Day 3) of the same compound?
A: Its value is 56.

Q: What about the “% mice anti-seizure” value (electroshocked mice; Day 4) of the same compound?
A: Its value is 21.4%.

Q: What about the “No. mice with seizure activity” value (electroshocked mice; Day 4) of the same compound?
A: Its value is 55.

Q: And the “% mice anti-seizure” value (electroshocked mice; Day 5)?
A: Its value is 17.1%.

Q: What about the “No. mice with seizure activity” value (electroshocked mice; Day 5) of the same compound?
A: The value was 58.

Q: What about the “% mice anti-seizure” value (electroshocked mice; Day 6) of the same compound?
A: Its value is 12.8%.

Q: What about the “No. mice with seizure activity” value (electroshocked mice; Day 6) of the same compound?
A: Its value is 61.

Q: What about the “% mice anti-seizure” value (electroshocked mice; Day 7) of the same compound?
A: The value was 12.9%.

Q: And the “No. mice with seizure activity” value (electroshocked mice; Day 7)?
A: Its value is 61.

Q: What about the “incubation time (time between completion of injection and first seizure)” value [1] of the same compound?
A: Its value is 7.23 ± 5.32 min.

Q: And the “life span after injection” value [1]?
A: The value was 22.76 ± 17.37 min.
